Organism: Rattus norvegicus
Test: Open TG-GATES - Regimen: Single
Assay type: toxicity, organism-based, Sprague-Dawley
Set-up: regimen Single, gender Male, age 6 weeks
Conditions: in vivo, ip, 0 mg/kg, route intraperitoneal injection, dose level Control; for APTT / Bas / Eos / Fbg / Hb / Ht / Lym / MCH / MCHC / MCV / Mono / Neu / PT / Plat / RBC / Ret / WBC: tissue Blood; for KIDNEY_L / KIDNEY_R / KIDNEY_TOTAL: tissue Kidney; for LIVER: tissue Liver; for A/G / ALP / ALT / AST / BUN / CRE / Ca / Cl / DBIL / GLC / IP / K / LDH / Na / PL / RALB / TBIL / TC / TG / TP / gamma-GTP: tissue Plasma

`N[C@H]1C(O)O[C@H](CO)[C@@H](O)[C@@H]1O` (some centres not stated) [GLUCOSAMINE] was tested, and the TERMINAL_BW (3 h) was 190.4 g, the APTT (3 h) was 17.1 s and the Bas (3 h) was 0.2%. For the same compound, the Eos (3 h) was 0.6%, the Fbg (3 h) was 273.4 mg/dL and the Hb (3 h) was 12.6 g/dL. It also gave a Ht (3 h) of 38.6%, a Lym (3 h) of 73.6% and an MCH (3 h) of 20.7 pg. For the same compound, the MCHC (3 h) was 32.7%, the MCV (3 h) was 63.4 fL and the Mono (3 h) was 3.8%. For the same compound, the Neu (3 h) was 20.2%, the PT (3 h) was 15.5 s and the Plat (3 h) was 111.6 x10_4/uL. For the same compound, the RBC (3 h) was 609.4 x10_4/ul, the Ret (3 h) was 9.4% and the WBC (3 h) was 98.5 x10_2/uL. For the same compound, the KIDNEY_L (3 h) was 0.9 g, the KIDNEY_R (3 h) was 0.9 g and the KIDNEY_TOTAL (3 h) was 1.7 g. It also gave an LIVER (3 h) of 8.4 g, an A/G (3 h) of 0.9 and an ALP (3 h) of 1386.8 IU/L. The ALT (3 h) was 42.2 IU/L, the AST (3 h) was 77 IU/L and the BUN (3 h) was 9.6 mg/dL. For the same compound, the CRE (3 h) was 0.2 mg/dL, the Ca (3 h) was 10.5 mg/dL and the Cl (3 h) was 106.4 meq/L. It also gave a DBIL (3 h) of 0.01 mg/dL, a GLC (3 h) of 175.4 mg/dL and an IP (3 h) of 9.4 mg/dL. The K (3 h) was 4.4 meq/L, the LDH (3 h) was 61.2 IU/L and the Na (3 h) was 142.2 meq/L. For the same compound, the PL (3 h) was 141.6 mg/dL, the RALB (3 h) was 2.4 g/dL and the TBIL (3 h) was 0.052 mg/dL. It also gave a TC (3 h) of 79.2 mg/dL, a TG (3 h) of 47.8 mg/dL and a TP (3 h) of 5.2 g/dL. For the same compound, the gamma-GTP (3 h) was 0.8 IU/L, the TERMINAL_BW (6 h) was 188.5 g and the APTT (6 h) was 18.8 s. It also gave a Bas (6 h) of 0.2%, an Eos (6 h) of 0% and a Fbg (6 h) of 298.6 mg/dL. It also gave a Hb (6 h) of 12.9 g/dL, a Ht (6 h) of 39.6% and a Lym (6 h) of 62.6%. It also gave an MCH (6 h) of 21.3 pg, an MCHC (6 h) of 32.6% and an MCV (6 h) of 65.5 fL. For the same compound, the Mono (6 h) was 2%, the Neu (6 h) was 34% and the PT (6 h) was 15.8 s. The Plat (6 h) was 113.1 x10_4/uL, the RBC (6 h) was 604.2 x10_4/ul and the Ret (6 h) was 9.4%. It also gave a WBC (6 h) of 79.2 x10_2/uL, a KIDNEY_L (6 h) of 0.8 g and a KIDNEY_R (6 h) of 0.8 g. It also gave a KIDNEY_TOTAL (6 h) of 1.6 g, an LIVER (6 h) of 7.8 g and an A/G (6 h) of 0.9. For the same compound, the ALP (6 h) was 1323.4 IU/L, the ALT (6 h) was 36.2 IU/L and the AST (6 h) was 70.2 IU/L. It also gave a BUN (6 h) of 8.2 mg/dL, a CRE (6 h) of 0.2 mg/dL and a Ca (6 h) of 10.3 mg/dL. For the same compound, the Cl (6 h) was 106.8 meq/L, the DBIL (6 h) was 0.008 mg/dL and the GLC (6 h) was 178.6 mg/dL. For the same compound, the IP (6 h) was 9.8 mg/dL, the K (6 h) was 4 meq/L and the LDH (6 h) was 51.8 IU/L. It also gave a Na (6 h) of 142.4 meq/L, a PL (6 h) of 144 mg/dL and an RALB (6 h) of 2.5 g/dL. The TBIL (6 h) was 0.052 mg/dL, the TC (6 h) was 82.8 mg/dL and the TG (6 h) was 41.4 mg/dL. It also gave a TP (6 h) of 5.3 g/dL, a gamma-GTP (6 h) of 1 IU/L and a TERMINAL_BW (9 h) of 185.1 g. For the same compound, the APTT (9 h) was 17 s, the Bas (9 h) was 0.2% and the Eos (9 h) was 0.8%. It also gave a Fbg (9 h) of 298.8 mg/dL, a Hb (9 h) of 13 g/dL and a Ht (9 h) of 40.1%. For the same compound, the Lym (9 h) was 66.6%, the MCH (9 h) was 21.2 pg and the MCHC (9 h) was 32.5%. It also gave an MCV (9 h) of 65.3 fL, a Mono (9 h) of 2.4% and a Neu (9 h) of 29.6%. For the same compound, the PT (9 h) was 15.7 s, the Plat (9 h) was 109.5 x10_4/uL and the RBC (9 h) was 615 x10_4/ul. For the same compound, the Ret (9 h) was 9.4%, the WBC (9 h) was 85.2 x10_2/uL and the KIDNEY_L (9 h) was 0.8 g. The KIDNEY_R (9 h) was 0.8 g, the KIDNEY_TOTAL (9 h) was 1.6 g and the LIVER (9 h) was 7.2 g. The A/G (9 h) was 0.9, the ALP (9 h) was 1439.4 IU/L and the ALT (9 h) was 37.6 IU/L. The AST (9 h) was 78 IU/L, the BUN (9 h) was 7.6 mg/dL and the CRE (9 h) was 0.2 mg/dL. It also gave a Ca (9 h) of 10.4 mg/dL, a Cl (9 h) of 107.4 meq/L and a DBIL (9 h) of 0.014 mg/dL. For the same compound, the GLC (9 h) was 157.4 mg/dL, the IP (9 h) was 10.3 mg/dL and the K (9 h) was 3.6 meq/L. It also gave an LDH (9 h) of 51.6 IU/L, a Na (9 h) of 143.2 meq/L and a PL (9 h) of 131.4 mg/dL. For the same compound, the RALB (9 h) was 2.5 g/dL, the TBIL (9 h) was 0.078 mg/dL and the TC (9 h) was 79.4 mg/dL. It also gave a TG (9 h) of 18.4 mg/dL, a TP (9 h) of 5.3 g/dL and a gamma-GTP (9 h) of 0.6 IU/L. It also gave a TERMINAL_BW (24 h) of 201.5 g, an APTT (24 h) of 17.2 s and a Bas (24 h) of 0.2%. For the same compound, the Eos (24 h) was 1.4%, the Fbg (24 h) was 293.6 mg/dL and the Hb (24 h) was 12.9 g/dL. For the same compound, the Ht (24 h) was 38.9%, the Lym (24 h) was 77.2% and the MCH (24 h) was 20.8 pg. The MCHC (24 h) was 33.1%, the MCV (24 h) was 62.6 fL and the Mono (24 h) was 2.8%. The Neu (24 h) was 17.2%, the PT (24 h) was 16.2 s and the Plat (24 h) was 117.8 x10_4/uL. It also gave an RBC (24 h) of 622.4 x10_4/ul, a Ret (24 h) of 8.9% and a WBC (24 h) of 96.4 x10_2/uL. It also gave a KIDNEY_L (24 h) of 0.9 g, a KIDNEY_R (24 h) of 0.9 g and a KIDNEY_TOTAL (24 h) of 1.8 g. For the same compound, the LIVER (24 h) was 9 g, the A/G (24 h) was 0.9 and the ALP (24 h) was 1430 IU/L. For the same compound, the ALT (24 h) was 39.8 IU/L, the AST (24 h) was 76.2 IU/L and the BUN (24 h) was 13.6 mg/dL. For the same compound, the CRE (24 h) was 0.2 mg/dL, the Ca (24 h) was 10.4 mg/dL and the Cl (24 h) was 105.8 meq/L. The DBIL (24 h) was 0.012 mg/dL, the GLC (24 h) was 185.2 mg/dL and the IP (24 h) was 8.3 mg/dL. It also gave a K (24 h) of 4.3 meq/L, an LDH (24 h) of 108.2 IU/L and a Na (24 h) of 142 meq/L. For the same compound, the PL (24 h) was 151.6 mg/dL, the RALB (24 h) was 2.5 g/dL and the TBIL (24 h) was 0.04 mg/dL. The TC (24 h) was 80.4 mg/dL, the TG (24 h) was 69.8 mg/dL and the TP (24 h) was 5.5 g/dL. It also gave a gamma-GTP (24 h) of 0.4 IU/L.
